Each structure is given as a SMILES string.

The target of this experiment is T1, BCL6::BCOR (Homo sapiens, UniProt P41182, C67R/C84N/C8Q).
T1 construct: BCL6 (amino acids 5 to 129, with the following changes to the natural protein); made in house; host or cells: E. coli
As to the kind of experiment: BCL6::BCOR ULight TR-FRET assay. It counts as binding. The text has this: Biological Methods BCL6::BCOR ULight TR-FRET Assay:
Biotinylated BCL6 protein corresponding to BCL6 (amino acids 5 to 129, with the following changes to the natural protein: C8Q, C67R, C84N) is expressed in E. coli with a carboxy-terminal Avi tag (amino acid sequence […]). The BCOR ULight peptide uses a direct carboxy-terminal ULight tag (PerkinElmer). The sequence of the peptide is CRSEIISTAPSSWVVPGP, with the amino terminus acetylated and the ULight tag attached to the cysteine. Compounds are dispensed onto assay plates (Proxiplate 384 PLUS, white, PerkinElmer) using an Access Labcyte Workstation with the Labcyte Echo 55×from a DMSO solution. For the chosen highest assay concentration of 100 μM, 150 nl of compound solution are transferred from a 10 mM DMSO compound stock solution. A series of 11 concentrations is transferred for each compound at which each concentration is fivefold lower than the previous one. DMSO is added such that every well has a total of 150 nl compound solution. 5 μL of 1 nM BCL6 protein in assay buffer (50 mM HEPES pH 7.3; 125 mM NaCl; 1 mM GSH; 0.01% Triton-X 100; 0.03% BSA) are added to the 150 nl of compounds. After 30 minutes incubation time at room temperature, 10 μL of a mix containing BCOR ULight peptide (100 nM final assay concentration) and Streptavidin-Europium (0.75 nM final assay concentration) are added. Plates are kept at room temperature. After 240 minutes incubation time the TR-FRET signal is measured in a PerkinElmer Envision HTS Multilabel Reader using the TR-FRET LANCE Ultra specs of PerkinElmer. Each plate contains negative controls (diluted DMSO instead of test compound; BCOR peptide and Streptavidin Europium mix with BCL6 protein) and positive controls (diluted DMSO instead of test compound; BCOR peptide and Streptavidin-Europium mix without BCL6 protein). Negative and positive control values are used for normalization.
(In TR-FRET formats the signal depends on donor and acceptor labels being close together.)

`CNC(=O)COc1cc2cc(Nc3nc(N4CCC(N5CCC(C)CC5)CC4)ncc3Cl)ccc2n(C)c1=O` [Compound I-40] returned a half-inhibitory concentration (IC50) of 9 nM. That is a single-digit nanomolar value.

`CNC(=O)COc1cc2cc(Nc3nc(N4CCC(N5CCCC5)CC4)ncc3Cl)ccc2n(C)c1=O` [Compound I-41] registered a 50% inhibitory concentration (IC50) of 8 nM. The IC50 values of the last two molecules are within 1.5-fold of each other. For the molecule `CNC(=O)COc1cc2cc(Nc3nc(N4CCC(N5CCCCC5)CC4)ncc3Cl)ccc2n(C)c1=O` [Compound I-42], the midpoint of inhibition, the IC50, lay at 9 nM. This IC50 and that of the molecule before are within 1.5-fold of each other. The value for `CNC(=O)COc1cc2cc(Nc3nc(N4CCC(CCN5CCCCC5)CC4)ncc3Cl)ccc2n(C)c1=O` [Compound I-43] was 6 nM; that for `CNC(=O)COc1cc2cc(Nc3nc(N4CCC(CN5CCOCC5)CC4)ncc3Cl)ccc2n(C)c1=O` [Compound I-44] was 9 nM. Molecule `CNC(=O)COc1cc2cc(Nc3nc(N4CCC(N(C)C)CC4)ncc3Cl)ccc2n(C)c1=O` [Compound I-45] registered a 50% inhibitory concentration (IC50) of 7 nM. The same measure for `CNC(=O)COc1cc2cc(Nc3nc(N4CCCN(C)CC4)ncc3Cl)ccc2n(C)c1=O` [Compound I-46]: 13 nM; for `CNC(=O)COc1cc2cc(Nc3nc(N4CCc5cnccc5C4)ncc3Cl)ccc2n(C)c1=O` [Compound I-47]: 5 nM.

`CNC(=O)COc1cc2cc(Nc3nc(N4C[C@@H](C)N(C)[C@@H](C)C4)ncc3Cl)ccc2n(C)c1=O` [Compound I-48] gave an IC50 of 11 nM. Consider `CNC(=O)COc1cc2cc(Nc3nc(N4CCN(C)C(C)(C)C4)ncc3Cl)ccc2n(C)c1=O` [Compound I-49], for which 11 nM corresponded to half-maximal inhibition (IC50). The value for `CNC(=O)COc1cc2cc(Nc3nc(N4CCOC(C)(C)C4)ncc3Cl)ccc2n(C)c1=O` [Compound I-50] was 5 nM; that for `CNC(=O)COc1cc2cc(Nc3nc(N4CCO[C@@H](C)C4)ncc3Cl)ccc2n(C)c1=O` [Compound I-51] was 6 nM.

The molecule `CNC(=O)COc1cc2cc(Nc3nc(N4CCO[C@H](C)C4)ncc3Cl)ccc2n(C)c1=O` [Compound I-52] had an IC50 of 7 nM. The molecule `CNC(=O)COc1cc2cc(Nc3nc(N4C[C@@H](C)O[C@@H](C)C4)ncc3Cl)ccc2n(C)c1=O` [Compound I-53] gave an IC50 of 6 nM. Molecule `CNC(=O)COc1cc2cc(Nc3nc(N4CCOCC4)ncc3Cl)ccc2n(C)c1=O` [Compound I-54] displayed a half-inhibitory concentration (IC50) of 5 nM. The value for `CNC(=O)COc1cc2cc(Nc3nc(N4CCCC(F)CC4)ncc3Cl)ccc2n(C)c1=O` (centres unmarked) [Compound I-55] was 5 nM; that for `CNC(=O)COc1cc2cc(Nc3nc(N4CCC(C(C)(C)C(=O)O)CC4)ncc3Cl)ccc2n(C)c1=O` [Compound I-56] was 4 nM. `CNC(=O)COc1cc2cc(Nc3nc(N4CCC(N5C[C@H]6CC[C@@H](C5)O6)CC4)ncc3Cl)ccc2n(C)c1=O` [Compound I-57] showed an IC50 of 6 nM. The value for `CNC(=O)COc1cc2cc(Nc3nc(N4CCC(N(C)CC(F)(F)F)CC4)ncc3Cl)ccc2n(C)c1=O` [Compound I-58] was 7 nM.

`CNC(=O)COc1cc2cc(Nc3nc(N4CCC(N5CC6CCC5CC6)CC4)ncc3Cl)ccc2n(C)c1=O` [Compound I-59] came in with an IC50 of 11 nM. This IC50 lies about 1.6-fold higher than the previous one. The same measure for `CNC(=O)COc1cc2cc(Nc3nc(N4CC5CC4CC5(F)F)ncc3Cl)ccc2n(C)c1=O` (centres unmarked) [Compound I-60]: 6 nM; for `CNC(=O)COc1cc2cc(Nc3nc(N4CCN(CC(=O)O)C(=O)C4)ncc3Cl)ccc2n(C)c1=O` [Compound I-61]: 4 nM; for `CNC(=O)COc1cc2cc(Nc3nc(N4CCC(C(=O)O)CC4)ncc3Cl)ccc2n(C)c1=O` [Compound I-62]: 4 nM. The value for `CNC(=O)COc1cc2cc(Nc3nc(N4CCN(CC(=O)O)CC4)ncc3Cl)ccc2n(C)c1=O` [Compound I-63] was 8 nM; that for `CNC(=O)COc1cc2cc(Nc3nc(N4C[C@H](F)C[C@@H](F)C4)ncc3Cl)ccc2n(C)c1=O` [Compound I-64] was 9 nM.

For the molecule `CNC(=O)COc1cc2cc(Nc3nc(N4C[C@H](F)C[C@H](F)C4)ncc3Cl)ccc2n(C)c1=O` [Compound I-65], it took 23 nM to reach half-maximal inhibition (IC50).

In general, IC50 refers to the concentration needed to halve the response being measured. High values mean a need for much substance, low ones inhibition by little substance.

The values are drawn from patent publication US11001570B2, “6-amino-quinolinone compounds and derivatives as BCL6 inhibitors” (Boehringer Ingelheim International GmbH, priority 2016, dated 2021).
